Data reported in patent US9556153B1, “JAK1 inhibitors” (Eli Lilly and Company, priority 2015, dated 2017).

Legend:
[1] = system: phosphorylation of STAT3 in the H1975 xenograft; assay: pSTAT3 Mouse IVTI (JAK1) Assay, H1975 xenograft; assay type: in vivo; settings: single oral dose, two hours, n=1
Protocol: pSTAT3 Mouse IVTI (JAK1) Assay
The purpose of this assay is to measure the ability of test compounds to inhibit the phosphorylation of STAT3 (STAT3 activation) in the H1975 xenograft mouse model. Grow H1975 cells according to ATCC specifications at the lowest possible passage number available. Culture and maintain cells in RPMI-1640 supplemented with 10% FBS and incubated at 37° C. in 5% CO2. Harvest cells by standard techniques and mix with BD Biosciences basement membrane matrix (MATRIGEL®) to cell suspension to achieve a 1:1 cell/matrix ratio yielding an inoculation volume of 0.2 mL cell/matrix suspension containing 5e6 cells. […] Time course studies are a single dose administered at the TED70 determined from the dose response study.
Harvest and cut tumors to yield approximately 150-250 mm^3 size fragments and immediately drop into a 12×75 mm tube containing 1 mL of ice cold MSD Tris Lysis buffer (Meso Scale Discovery cat# R60TX-2) and 1×HALT (Thermo Scientific product #1861281). […] Cool plate to RT and measure absorbance at or near 562 nm on Molecular Devices Spectra Max. Protein concentrations for each sample are determined using SoftMax Pro 6.3 software program. After tumor samples are quantitated, freeze lysates at −80° C. in the 96 well polypropylene plate and assay at a later date. […]

[2] = biological target: JAK1 (Homo sapiens, UniProt P23458); assay: Human whole blood assay: pSTAT3 (JAK1) in lymphocytes; assay type: cell-based; set-up: endogenous in cells; host or cells: human whole blood, CD4+ lymphocytes; settings: HWB
Text: Human Whole Blood Assays: Determination of pSTAT3 (JAK1) and pSTAT5 (JAK2) in Lymphocytes and Monocytes
Human whole blood (HWB) assays were developed and validated to determine the JAK1 and JAK2 selectivity of test compounds.
Dilute the test compounds, 10 points, (1:3) in DMSO 100% and a step down in PBS+0.1% BSA. Use tofacitinib as a reference compound in each plate, as well as a maximum signal (stimulated wells) and a minimum signal (no stimulated wells) in order to normalize data. Obtain a pool of HWB from 4 different healthy donors. Plate the blood in a 96 well plate using a Tecan Evo 96w and incubate with test compounds for 1 h at RT. After this time of incubation, stimulate HWB with both IL6 (206-IL, R&D System) and GM-CSF (PHC2015, Life Technologies) for 15 more minutes. […]
The final concentrations in the assay are the following: 100 μM for compounds, 50 μM for tofacitinib, 0.1 μg/mL IL6, 0.038 μg/mL GM-CSF and 1% DMSO. […] Incubate the antibodies for 1 h in dark at RT, then wash cells 2× and read on Cytometer Macsquant (Miltenyi Biotec). Gate the data on CD4+(lymphocytes) and CD4Low CD33Hi (monocytes), to measure the fluorescence from cells expressing pSTAT3 and pSTAT5 respectively. Analyze the data using FlowJo v_10 and the normalize the median of fluorescence versus maximum and minimum signal to determine the IC50s. […]

JAK1, sequence (P23458 whole entry): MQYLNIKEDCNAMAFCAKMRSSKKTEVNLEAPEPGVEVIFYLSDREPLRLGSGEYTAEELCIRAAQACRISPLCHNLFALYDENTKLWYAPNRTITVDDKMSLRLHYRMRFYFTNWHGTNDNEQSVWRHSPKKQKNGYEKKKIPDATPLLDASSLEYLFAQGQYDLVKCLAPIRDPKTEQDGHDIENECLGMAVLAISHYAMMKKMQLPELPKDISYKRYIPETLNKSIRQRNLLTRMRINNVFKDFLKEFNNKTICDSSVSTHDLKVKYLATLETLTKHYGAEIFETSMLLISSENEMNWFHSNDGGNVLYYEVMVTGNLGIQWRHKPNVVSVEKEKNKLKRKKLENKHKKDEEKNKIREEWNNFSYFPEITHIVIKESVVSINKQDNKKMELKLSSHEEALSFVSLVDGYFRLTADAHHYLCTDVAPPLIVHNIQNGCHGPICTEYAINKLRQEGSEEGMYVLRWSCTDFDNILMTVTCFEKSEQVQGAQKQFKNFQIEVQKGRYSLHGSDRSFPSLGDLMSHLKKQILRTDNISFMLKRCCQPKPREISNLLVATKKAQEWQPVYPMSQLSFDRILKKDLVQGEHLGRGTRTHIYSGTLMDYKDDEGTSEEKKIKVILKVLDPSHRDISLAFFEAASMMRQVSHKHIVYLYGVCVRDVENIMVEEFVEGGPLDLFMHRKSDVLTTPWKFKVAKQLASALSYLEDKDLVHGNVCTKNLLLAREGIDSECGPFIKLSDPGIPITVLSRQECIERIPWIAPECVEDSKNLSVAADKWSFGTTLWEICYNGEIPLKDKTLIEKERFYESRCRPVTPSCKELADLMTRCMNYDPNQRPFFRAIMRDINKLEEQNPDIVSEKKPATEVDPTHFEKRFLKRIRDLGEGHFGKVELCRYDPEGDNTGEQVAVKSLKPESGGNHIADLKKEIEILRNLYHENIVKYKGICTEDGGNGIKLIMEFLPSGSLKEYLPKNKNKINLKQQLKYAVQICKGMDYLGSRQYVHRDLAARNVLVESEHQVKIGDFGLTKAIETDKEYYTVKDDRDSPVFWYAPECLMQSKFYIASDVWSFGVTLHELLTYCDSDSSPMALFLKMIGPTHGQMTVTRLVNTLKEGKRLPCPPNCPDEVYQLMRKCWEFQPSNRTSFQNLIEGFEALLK

IC50 ([2]; IL6 stimulated, CD4+ lymphocytes, n=3): 2400 ± 640 nM | potency for JAK1 over JAK2 in a human whole blood assay ([2]; JAK1 over JAK2): approximately 5 ×
Compound: Cc1cc(Nc2cc(O[C@H]3CC[C@@H](NC[C@@H](O)C(F)(F)F)CC3)cc3c2ncn3C)nn1C [Example 1, (2R)-3-{[cis-4-({4-[(1,5-Dimethyl-1H-pyrazol-3-yl)amino]-1-methyl-1H-benzimidazol-6-yl}oxy)cyclohexyl]amino}-1,1,1-trifluoropropan-2-ol]
TEC50 (plasma concentration to achieve 50% pSTAT3 inhibition) [1]: 11.1 μM | TED50 (dose necessary to achieve 50% pSTAT3 inhibition) [1]: 35 mg/kg
